Data published in patent publication US9771369B2, “Compounds and methods for kinase modulation, and indications therefor” (Plexxikon Inc., priority 2014, dated 2017).

Columns and labels:
c-kit mutant D816V = c-kit mutant D816V (Homo sapiens (Human), UniProt P10721, D816V/DEL694-753); assay: c-Kit mutant D816V biochemical assay (AlphaScreen kinase activity)
Procedure, shortened: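 AlphaScreen with streptavidin donor and PY30 acceptor beads read phosphotyrosine on biotin-(E4Y)10 substrate (30 nM). Enzyme: E. coli-expressed N-His c-Kit D816V, residues 551-934 lacking kinase insert 694-753. Reaction 30 min at room temperature, 10 μM ATP, 5% DMSO; IC50 fitted over 8 three-fold dilutions.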

[1] = test system: BaF3-FL KIT D816V or BaF3-FL KIT V560G/D816V cell line; assay: Cell-based assays of c-Kit mutant kinase activity (cell proliferation, ATPlite); settings: at least one of the c-kit cell assays of Example 7
Procedure, shortened: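 BaF3 cells dependent on transfected full-length human KIT D816V or V560G/D816V (pCI-Neo, CMV promoter) were seeded at 1×10^4 cells/well and exposed to 8-point 1:3 dilutions from 10 μM top (0.2% DMSO) for three days at 37° C. ATPlite luminescence gave cell number; IC50 from concentration-response.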

c-kit mutant D816V, sequence (P10721 other isoform, or with tags, fused parts or gaps D816V/del 694-753): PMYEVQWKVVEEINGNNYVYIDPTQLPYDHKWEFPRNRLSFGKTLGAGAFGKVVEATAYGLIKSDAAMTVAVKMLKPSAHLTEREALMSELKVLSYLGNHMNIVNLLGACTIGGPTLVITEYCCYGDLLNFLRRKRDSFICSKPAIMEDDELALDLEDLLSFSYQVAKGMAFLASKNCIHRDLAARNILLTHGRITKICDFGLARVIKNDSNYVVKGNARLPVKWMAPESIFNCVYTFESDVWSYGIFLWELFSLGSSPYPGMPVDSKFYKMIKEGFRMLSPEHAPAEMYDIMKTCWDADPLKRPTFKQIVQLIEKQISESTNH

SMILES: COc1ccc(-c2[nH]c(C3(C)CCN(c4ncnc5[nH]c(-c6ccc(C#N)cc6)cc45)CC3)nc2C)cc1 [P-3043, 4-[4-[4-[5-(4-methoxyphenyl)-4-methyl-1H-imidazol-2-yl]-4-methyl-1-piperidyl]-7H-pyrrolo[2,3-d]pyrimidin-6-yl]benzonitrile]
- IC50 (c-kit mutant D816V): 0.0001 to 1 µM
- IC50 [1]: < 10000 nM

SMILES: Cc1nc(C2CCN(c3ncnc4[nH]c(-c5ccc(C(N)=O)cc5)cc34)CC2)[nH]c1-c1ccccc1 [P-3044, 4-[4-[4-(4-methyl-5-phenyl-1H-imidazol-2-yl)-1-piperidyl]-7H-pyrrolo[2,3-d]pyrimidin-6-yl]benzamide]
- IC50 (c-kit mutant D816V): 0.0001 to 1 µM
- IC50 [1]: < 10000 nM

SMILES: COc1ncc(-c2cc3c(N4CCC(c5nc(C)c(-c6ccccc6)[nH]5)CC4)ncnc3[nH]2)cn1 [P-3045, 6-(2-methoxypyrimidin-5-yl)-4-[4-(4-methyl-5-phenyl-1H-imidazol-2-yl)-1-piperidyl]-7H-pyrrolo[2,3-d]pyrimidine]
- IC50 (c-kit mutant D816V): 0.0001 to 1 µM
- IC50 [1]: < 10000 nM

SMILES: Cc1nc(C2CCN(c3ncnc4[nH]c(-c5cnn(C)c5)cc34)CC2)[nH]c1-c1ccccc1 [P-3046, 4-[4-(4-methyl-5-phenyl-1H-imidazol-2-yl)-1-piperidyl]-6-(1-methylpyrazol-4-yl)-7H-pyrrolo[2,3-d]pyrimidine]
- IC50 (c-kit mutant D816V): 0.0001 to 1 µM
- IC50 [1]: < 10000 nM

SMILES: Cc1nc(C2CCN(c3ncnc4[nH]c(-c5ccc(C#N)cc5)cc34)CC2)[nH]c1-c1ccccc1 [P-3047, 4-[4-[4-(4-methyl-5-phenyl-1H-imidazol-2-yl)-1-piperidyl]-7H-pyrrolo[2,3-d]pyrimidin-6-yl]benzonitrile]
- IC50 (c-kit mutant D816V): 0.0001 to 1 µM
- IC50 [1]: < 10000 nM

SMILES: Cc1nc(C2CCN(c3ncnc4[nH]c(-c5ccc(S(N)(=O)=O)cc5)cc34)CC2)[nH]c1-c1ccccc1 [P-3048, 4-[4-[4-(4-methyl-5-phenyl-1H-imidazol-2-yl)-1-piperidyl]-7H-pyrrolo[2,3-d]pyrimidin-6-yl]benzenesulfonamide]
- IC50 (c-kit mutant D816V): 0.0001 to 1 µM
- IC50 [1]: < 10000 nM

SMILES: CNC(=O)c1cccc(-c2cc3c(N4CCC(c5nc(C)c(-c6ccccc6)[nH]5)CC4)ncnc3[nH]2)c1 [P-3049, N-methyl-3-[4-[4-(4-methyl-5-phenyl-1H-imidazol-2-yl)-1-piperidyl]-7H-pyrrolo[2,3-d]pyrimidin-6-yl]benzamide]
- IC50 (c-kit mutant D816V): 0.0001 to 1 µM
- IC50 [1]: < 10000 nM

SMILES: Cc1nc(C2CCN(c3ncnc4[nH]c(-c5cnn(C(F)F)c5)cc34)CC2)[nH]c1-c1ccccc1 [P-3050, 6-[1-(difluoromethyl)pyrazol-4-yl]-4-[4-(4-methyl-5-phenyl-1H-imidazol-2-yl)-1-piperidyl]-7H-pyrrolo[2,3-d]pyrimidine]
- IC50 (c-kit mutant D816V): 0.0001 to 1 µM
- IC50 [1]: < 10000 nM

SMILES: Cc1nc(C2CCN(c3ncnc4[nH]c(-c5cccc(S(N)(=O)=O)c5)cc34)CC2)[nH]c1-c1ccccc1 [P-3051, 3-[4-[4-(4-methyl-5-phenyl-1H-imidazol-2-yl)-1-piperidyl]-7H-pyrrolo[2,3-d]pyrimidin-6-yl]benzenesulfonamide]
- IC50 (c-kit mutant D816V): 0.0001 to 1 µM
- IC50 [1]: < 10000 nM

SMILES: COc1ccc(-c2[nH]c(C3(C)CCN(c4ncnc5[nH]c(-c6ccc(F)cc6)cc45)CC3)nc2C)cc1C [P-3052, 6-(4-fluorophenyl)-4-[4-[5-(4-methoxy-3-methyl-phenyl)-4-methyl-1H-imidazol-2-yl]-4-methyl-1-piperidyl]-7H-pyrrolo[2,3-d]pyrimidine]
- IC50 (c-kit mutant D816V): 0.0001 to 1 µM
- IC50 [1]: < 10000 nM

SMILES: COc1ccc(-c2[nH]c(C3(C)CCN(c4ncnc5[nH]c(-c6ccc(C#N)cc6)cc45)CC3)nc2C)cc1C [P-3053, 4-[4-[4-[5-(4-methoxy-3-methyl-phenyl)-4-methyl-1H-imidazol-2-yl]-4-methyl-1-piperidyl]-7H-pyrrolo[2,3-d]pyrimidin-6-yl]benzonitrile]
- IC50 (c-kit mutant D816V): 0.0001 to 1 µM
- IC50 [1]: < 10000 nM

SMILES: COc1cc(-c2cc3c(N4CCC(C)(c5nc(C)c(-c6ccc(OC)c(C)c6)[nH]5)CC4)ncnc3[nH]2)ccn1 [P-3054, 4-[4-[5-(4-methoxy-3-methyl-phenyl)-4-methyl-1H-imidazol-2-yl]-4-methyl-1-piperidyl]-6-(2-methoxy-4-pyridyl)-7H-pyrrolo[2,3-d]pyrimidine]
- IC50 (c-kit mutant D816V): 0.0001 to 1 µM
- IC50 [1]: < 10000 nM

SMILES: CCC1(c2nc(C)c(-c3ccc(OC)cc3)[nH]2)CCN(c2ncnc3[nH]c(-c4ccc(F)cc4)cc23)CC1 [P-3055, 4-[4-ethyl-4-[5-(4-methoxyphenyl)-4-methyl-1H-imidazol-2-yl]-1-piperidyl]-6-(4-fluorophenyl)-7H-pyrrolo[2,3-d]pyrimidine]
- IC50 (c-kit mutant D816V): 0.0001 to 1 µM
- IC50 [1]: < 10000 nM

SMILES: CCC1(c2nc(C)c(-c3ccc(OC)c(C)c3)[nH]2)CCN(c2ncnc3[nH]c(-c4ccc(F)cc4)cc23)CC1 [P-3056, 4-[4-ethyl-4-[5-(4-methoxy-3-methyl-phenyl)-4-methyl-1H-imidazol-2-yl]-1-piperidyl]-6-(4-fluorophenyl)-7H-pyrrolo[2,3-d]pyrimidine]
- IC50 (c-kit mutant D816V): 0.0001 to 1 µM
- IC50 [1]: < 10000 nM

SMILES: Cc1nc(C2(C)CCN(c3ncnc4[nH]c(-c5ccc(F)cc5)cc34)CC2)[nH]c1-c1ccc(F)cc1 [P-3057, 6-(4-fluorophenyl)-4-[4-[5-(4-fluorophenyl)-4-methyl-1H-imidazol-2-yl]-4-methyl-1-piperidyl]-7H-pyrrolo[2,3-d]pyrimidine]
- IC50 (c-kit mutant D816V): 0.0001 to 1 µM
- IC50 [1]: < 10000 nM

SMILES: Cc1nc(C2(C)CCN(c3ncnc4[nH]c(-c5ccc(F)cc5)cc34)CC2)[nH]c1-c1ccc(Cl)cc1 [P-3058, 4-[4-[5-(4-chlorophenyl)-4-methyl-1H-imidazol-2-yl]-4-methyl-1-piperidyl]-6-(4-fluorophenyl)-7H-pyrrolo[2,3-d]pyrimidine]
- IC50 (c-kit mutant D816V): 0.0001 to 1 µM
- IC50 [1]: < 10000 nM

SMILES: CCc1ccc(-c2[nH]c(C3CCN(c4ncnc5[nH]c(-c6ccnc(OC)c6)cc45)CC3)nc2C)cc1 [P-3059, 4-[4-[5-(4-ethylphenyl)-4-methyl-1H-imidazol-2-yl]-1-piperidyl]-6-(2-methoxy-4-pyridyl)-7H-pyrrolo[2,3-d]pyrimidine]
- IC50 (c-kit mutant D816V): 0.0001 to 1 µM
- IC50 [1]: < 10000 nM

SMILES: CCc1ccc(-c2[nH]c(C3CCN(c4ncnc5[nH]c(-c6ccc(F)cc6)cc45)CC3)nc2C)cc1 [P-3060, 4-[4-[5-(4-ethylphenyl)-4-methyl-1H-imidazol-2-yl]-1-piperidyl]-6-(4-fluorophenyl)-7H-pyrrolo[2,3-d]pyrimidine]
- IC50 (c-kit mutant D816V): 0.0001 to 1 µM
- IC50 [1]: < 10000 nM

SMILES: CCc1ccc(-c2[nH]c(C3CCN(c4ncnc5[nH]c(-c6ccc(C#N)cc6)cc45)CC3)nc2C)cc1 [P-3061, 4-[4-[4-[5-(4-ethylphenyl)-4-methyl-1H-imidazol-2-yl]-1-piperidyl]-7H-pyrrolo[2,3-d]pyrimidin-6-yl]benzonitrile]
- IC50 (c-kit mutant D816V): 0.0001 to 1 µM
- IC50 [1]: < 10000 nM

SMILES: Cc1ccc(-c2[nH]c(C3CCN(c4ncnc5[nH]c(-c6ccc(F)cc6)cc45)CC3)nc2C)cc1 [P-3062, 6-(4-fluorophenyl)-4-[4-[4-methyl-5-(p-tolyl)-1H-imidazol-2-yl]-1-piperidyl]-7H-pyrrolo[2,3-d]pyrimidine]
- IC50 (c-kit mutant D816V): 0.0001 to 1 µM
- IC50 [1]: < 10000 nM

SMILES: COc1ccc(-c2[nH]c(C3(C)CCN(c4ncnc5[nH]c(C)cc45)CC3)nc2C)cc1 [P-3063, 4-[4-[5-(4-methoxyphenyl)-4-methyl-1H-imidazol-2-yl]-4-methyl-1-piperidyl]-6-methyl-7H-pyrrolo[2,3-d]pyrimidine]
- IC50 (c-kit mutant D816V): 0.0001 to 1 µM
- IC50 [1]: < 10000 nM

SMILES: Cc1cc2c(N3CCC(C)(c4nc(C)c(-c5ccc(F)cc5)[nH]4)CC3)ncnc2[nH]1 [P-3064, 4-[4-[5-(4-fluorophenyl)-4-methyl-1H-imidazol-2-yl]-4-methyl-1-piperidyl]-6-methyl-7H-pyrrolo[2,3-d]pyrimidine]
- IC50 (c-kit mutant D816V): 0.0001 to 1 µM
- IC50 [1]: < 10000 nM

SMILES: CCOc1ccc(-c2[nH]c(C3CCN(c4ncnc5[nH]c(-c6ccc(F)cc6)cc45)CC3)nc2C)cc1C [P-3065, 4-[4-[5-(4-ethoxy-3-methyl-phenyl)-4-methyl-1H-imidazol-2-yl]-1-piperidyl]-6-(4-fluorophenyl)-7H-pyrrolo[2,3-d]pyrimidine]
- IC50 (c-kit mutant D816V): 0.0001 to 1 µM
- IC50 [1]: < 10000 nM

SMILES: CCOc1ccc(-c2[nH]c(C3CCN(c4ncnc5[nH]c(-c6ccc(C#N)cc6)cc45)CC3)nc2C)cc1C [P-3066, 4-[4-[4-[5-(4-ethoxy-3-methyl-phenyl)-4-methyl-1H-imidazol-2-yl]-1-piperidyl]-7H-pyrrolo[2,3-d]pyrimidin-6-yl]benzonitrile]
- IC50 (c-kit mutant D816V): 0.0001 to 1 µM
- IC50 [1]: < 10000 nM

SMILES: CCOc1ccc(-c2[nH]c(C3CCN(c4ncnc5[nH]c(-c6ccnc(OC)c6)cc45)CC3)nc2C)cc1C [P-3067, 4-[4-[5-(4-ethoxy-3-methyl-phenyl)-4-methyl-1H-imidazol-2-yl]-1-piperidyl]-6-(2-methoxy-4-pyridyl)-7H-pyrrolo[2,3-d]pyrimidine]
- IC50 (c-kit mutant D816V): 0.0001 to 1 µM
- IC50 [1]: < 10000 nM

SMILES: Cc1nc(C2CCN(c3ncnc4[nH]c(-c5ccc(F)cc5)cc34)CC2)[nH]c1-c1ccc2c(c1)OCO2 [P-3068, 4-[4-[5-(1,3-benzodioxol-5-yl)-4-methyl-1H-imidazol-2-yl]-1-piperidyl]-6-(4-fluorophenyl)-7H-pyrrolo[2,3-d]pyrimidine]
- IC50 (c-kit mutant D816V): 0.0001 to 1 µM
- IC50 [1]: < 10000 nM

SMILES: Cc1nc(C2CCN(c3ncnc4[nH]c(-c5ccc(C#N)cc5)cc34)CC2)[nH]c1-c1ccc2c(c1)OCO2 [P-3069, 4-[4-[4-[5-(1,3-benzodioxol-5-yl)-4-methyl-1H-imidazol-2-yl]-1-piperidyl]-7H-pyrrolo[2,3-d]pyrimidin-6-yl]benzonitrile]
- IC50 (c-kit mutant D816V): 0.0001 to 1 µM
- IC50 [1]: < 10000 nM

SMILES: COc1cc(-c2cc3c(N4CCC(c5nc(C)c(-c6ccc7c(c6)OCO7)[nH]5)CC4)ncnc3[nH]2)ccn1 [P-3070, 4-[4-[5-(1,3-benzodioxol-5-yl)-4-methyl-1H-imidazol-2-yl]-1-piperidyl]-6-(2-methoxy-4-pyridyl)-7H-pyrrolo[2,3-d]pyrimidine]
- IC50 (c-kit mutant D816V): 0.0001 to 1 µM
- IC50 [1]: < 10000 nM
